Results published in patent publication US8779002B2, “Methods for treating a variety of diseases and conditions, and compounds useful therefor” (Salk Institute for Biological Studies, priority 2007, dated 2014).

How the values were obtained:
[1] = system: HT22 cells; experiment: HT22 oxidative glutamate toxicity (oxytosis) assay; format: cell-based, mouse; settings: Oxidative glutamate toxicity (oxytosis); read-out: HT-22 EC50
Protocol: FIG. 1D illustrates the results of an oxidative stress assay. HT22 cells were treated with 5 mM glutamate and different concentrations of two versions of curcumin derivatives. Cell viability was measured 24 hr later by the MTT assay (J. B. Davis and P. Maher, Protein kinase C activation inhibits glutamate-induced cytotoxicity in a neuronal cell line. Brain Res. 652 (1994) 169-173). Legend for FIG. 1A, FIG. 1B and FIG. 1D: x-x, Cmpd CNB-001, o-o, Cmpd J147.
Similar toxicity assays as described above are also conducted with invention compounds using HT22 cells in an assay for oxidative stress. After exposure with 1 mM, 2 mM, 2.5 mM, or 5 mM glutamate, cell viability is determined with the MTT assay.
HT22 hippocampal neurons are treated with 5 mM glutamate and increasing concentrations of invention compounds. Cell viability is measured 24 hr later by the MTT assay (Davis and Maher, Brain Res. 652:169-173 (1994)).

[2] = system: MC-65 cells; experiment: MC65 intracellular amyloid toxicity assay; format: cell-based; settings: Intracellular amyloid toxicity; read-out: MC65 EC50
Protocol: FIG. 4A illustrates the viability of MC-65 cells upon exposure to the indicated concentrations of compounds, and the degree to which synthesis of the C-terminal fragment of APP is induced by the removal of tetracycline. Cell death was determined 5 days later by the MTT assay and confirmed visually. The data are plotted as percent viable, relative to controls of drug plus un-induced cells.

[3] = system: primary cortical neurons; experiment: Trophic factor withdrawal (TFW) assay; format: cell-based, rat; settings: Trophic factor withdrawal assay; read-out: TFW EC50
Protocol: FIG. 1A illustrates the results of a trophic factor withdrawal assay. Primary cortical neurons are prepared from 18-day-old rat embryos, and cultured at low cell density 1×10^6/35 mm dish, in serum containing medium, with different compounds Viability is then assayed 2 days later using a fluorescent live-dead assay (Molecular Probes).
Primary cortical neurons can be prepared from 18-day-old embryos of Sprague-Dawley rats as described (Liu & Schubert, J. Neurochem., 1997, 69:2285-2293 and J. Neurochem., 1998, 71:2322-2329). Briefly, the cerebral cortex is dissected out under an anatomical microscope and is freed of meninges and blood vessels. The cortex is cut into small pieces and is then dissociated by trypsin digestion and passed through a pipette tip. Dissociated neurons are suspended in various media and plated on polylysine-coated 35 mm tissue culture dishes (e.g., 1×10^6 cells/dish). Several different culture conditions can be used as known in the art. Invention compounds can be added to cell culture dishes. Cell survival can be measured 1-2 days after compound administration.
A serum-containing medium can be used which includes a minimal essential medium (Sigma) containing 30 mM glucose, 2 mM glutamine, 1 mM pyruvate, penicillin (100 U/ml), streptomycin (100 μg/ml), and 10% fetal calf serum. At a plating density of 1×10^6 cells/dish, most neurons die after one week of culture in this medium. If plated at a density of 2×10^6 cells/dish, then most neurons survive. The cell density-dependent neuronal survival in this system is most likely dependent on the neurotrophic factors secreted by the neurons, not by the glia. The results are the same when glial proliferation is inhibited by cytosine arabinoside.
The structure-activity relationships of compounds according to the present invention can be determined by measuring trophic factor withdrawal in […] primary cortical neurons. As shown in FIG. 1A-FIG. 1D, compounds are added to low density primary cultures of E18 rat cortical neurons at the time of plating, and cell survival is determined two days later by a variety of methods.

[4] = system: Wistar rats; experiment: Novel object recognition task in rats; format: in vivo, rat
Protocol: FIG. 6 illustrates the effect of galantamine, compounds CNB-001, J147, SK186 and SKI 87 on object recognition task in Wistar rats. The data represent mean±SEM. *p<0.05 compared with the vehicle control.
This model is based on the greater spontaneous exploration of a novel object, compared with a familiar object, shown by rodents (see Ennaceur and Delacour in Behav. Brain Res. 31:47 (1988)). Male Wister rats are assessed for cognitive ability in a test apparatus comprising an open-field arena placed in a sound-attenuated room under dimmed lighting. Images of the open-field are captured by digital camera, and viewed on a monitor in an adjoining room. Each rat is subjected to the procedure separately and care is taken to remove any olfactory/taste cues by cleaning the arena and test objects with alcohol between trials and rats.
Adult male Wistar rats were employed in all rat studies. Animals were placed in the experimental rooms at postnatal day 80 and assigned unique identification numbers (tail marked). Pairs were housed in polycarbonate cages with filter tops and acclimated for 3 days prior to commencing any studies. Animals were maintained in a 12 hour light/dark cycle with room temperature maintained at 22±2° C. with a relative humidity maintained approximately 50%. Food and water were provided ad libitum.
All animals were examined, handled, and weighed for a further two days prior to initiation of the study to assure adequate health and suitability and to minimize non-specific stress associated with manipulation. Each animal was randomly assigned across the treatment groups and balanced by cage numbers. The novel object recognition experiment was performed during the animal's light cycle phase. Drug treatments were balanced across days and animals were only used once
The following compounds were used for this study—Reference compound (Galantamine; 3 mg/kg) was dissolved in 0.9% saline and administered i.p. 1 hour pre-test at a dose volume of 1 ml/kg, and all test compounds were handled in solution, and were kept at −80° C. until use. All compounds were administered orally 60 min prior to training at a volume of 1 ml/kg body weight.
Following a 5-minute habituation period, each rat was placed into the test arena in the presence of two identical objects (plastic shapes). Each rat was placed facing the same direction at the same position in the arena, and the time spent actively exploring the objects during a 5-minute test period (T1) was recorded. The rat was returned to its home cage between tests. After 24 hours, each rat was again placed in the test arena for 5 minutes (T2) in the presence of one of the familiar objects and a novel object, and the time spent exploring both objects was again recorded. The presentation order and position of the objects (left/right) was randomized between rats to prevent bias from order or place preference. A preference index for each object, the ratio of the time spent exploring either the familiar object or the novel object over the total time spent exploring both objects (during retention session T2) was used to measure cognitive function.
Data were analyzed by a one-way analysis of variance (ANOVA) followed by post-hoc comparisons with Fisher Tests when appropriate. An effect was considered significant if p<0.05. Data in the following tables are presented as the mean and standard error to the mean.

`Cc1ccccc1N(N=Cc1ccccc1)C(=O)C(F)(F)F` [HF 43FP] gave an EC50 [1] of 50 nM, an EC50 [2] of 400 nM and an EC50 [3] of 800 nM.
With `Cc1ccc(N(N=Cc2ccccc2)C(=O)C(F)(F)F)c(C)c1` [HF 39FP] the EC50 [1] was 37 nM, the EC50 [2] was 220 nM and the EC50 [3] was > 1000 nM.
With `COc1cccc(C=NN(C(=O)C(F)(F)F)c2ccccc2C)c1` [HF 43 FO] the EC50 [1] was 68 nM, the EC50 [2] was 130 nM and the EC50 [3] was > 1000 nM.
For `COc1cccc(C=NN(C(C)=O)c2ccc(C)cc2C)c1` [Compound J147A], the EC50 [1] was 70 nM, the EC50 [2] was 280 nM and the EC50 [3] was > 1000 nM.
For `COc1ccc2c3c1O[C@H]1C[C@@H](O)C=C[C@@]31CCN(C)C2` [Galantamine, reference compound], the “Recognition index, Mean” value ([4]; 3 mg/kg i.p. 1 hour pre-test, Wistar rats, n=8) was 74.037 and the “Fisher's PLSD for Recognition index, Mean Diff. (*vehicle, treatment)” value ([4]; vehicle versus 3 mg/kg i.p.) was −22.114.
`COc1cccc(C=NN(C(=O)C(F)(F)F)c2ccc(C)cc2)c1` [HF 42FP] showed an EC50 [1] of 80 nM, an EC50 [2] of 50 nM and an EC50 [3] of 700 nM.
`Cc1ccc(N(N=Cc2ccc(C(=O)O)cc2)C(=O)C(F)(F)F)c(C)c1` [Sk36] was tested, and the EC50 [1] was 100 nM, the EC50 [2] was 300 nM and the EC50 [3] was 300 nM.
Molecule `COc1cccc(C=NN(C(=O)C(F)(F)F)c2ccccc2)c1` [HF 40FP] has an EC50 [1] of 75 nM, an EC50 [2] of 250 nM and an EC50 [3] of 100 nM.
`Cc1ccc(N(N=Cc2ccccc2)C(=O)C(F)(F)F)cc1` [HF 41FP] was tested, and the EC50 [1] was 33 nM, the EC50 [2] was > 1000 nM and the EC50 [3] was > 1000 nM.
For `O=C(N(N=Cc1ccccc1)c1ccccc1)C(F)(F)F` [HF 38FP], the EC50 [1] was 33 nM, the EC50 [2] was 80 nM and the EC50 [3] was 70 nM.
For `COc1ccc(C=NN(C(=O)C(F)(F)F)c2ccc(C)cc2C)cc1` [Sk35], the EC50 [1] was 4 nM, the EC50 [2] was 10 nM and the EC50 [3] was 35 nM.
